From patent publication US20040171594A1, “Use of bis-acid(5-androsten-17-one-3beta-hydroxyl)diester for manufacture pharmaceuticals” (priority 2001, published 2004)
Marks after values point to notes of the source that are not given here.

Tests used:
[1] = tested on: arrhythmia of rats induced by Aconitine; test: Arrhythmia of rats induced by Aconitine; assay type: in vivo, SD rats; conditions: rats, drug 0.5 mg/kg sublingual vein 10 min before Aconitine 2.5 μg/min, n=10
Procedure: Male SD rats, weighing (218.3±20.0) g, were anaesthetized with urethane 1.2 g/kg body weight by abdominal injection, continuously monitored by II lead electrocardiogram (ECG) by MS302 Biological Signal Record and Analysis System. After ten minutes of being administered drug or 0.5% CMC-Na through sublingual vein, rats were injected with Aconitine in external jugular vein at 2.5 μg/min speed, recorded the dose at appearance time of ventricular premature beat (VP), ventricular tachycardia (VT), ventricular fibrillation (VF) and cardiac arrest (CA), respectively. And t test was performed. […] The effect of compounds Ca Do E at 0.5 mg/kg dose were remarkably better than that of Prasterone and Arniodarone.

[2] = tested on: myocardium injury model of rats induced by ISO; test: Myocardium injury (myocardial ischemia) model of rats induced by ISO; assay type: in vivo, SD rats; conditions: drug 0.76 mg/kg, n=8; for Σ ST: rats, ISO s.c.
Procedure: SD rats were measured ECG by chest leads before experiment, abandoned those of abnormal or arrhythmia at T wave, ST sect. […] They were divided into four groups according to Table 4, eight rats in each group. As dose of Table 4, tested compounds or 0.5% CMC-Na solution with same volume were administered through duodenum for 30 minutes, rats were anaesthetized with aether. After ECG was recorded, Isoproterenol (ISO) was administered by subcutaneous injection from the back, recorded ECG again after 30 minutes. After specimen was intragastricly granted for 24 hours and 48 hours, every group was administered simples again and recorded ECG again in terms of the methods stated above. After 72 hours, bleeding from the ophthalmic venous plexus and separated blood serum through centrifugation. Killed the rats, scissor the tip of the heart to prepare 10% myocardial tissue homogenate with 4° C. physiological saline as standby.
Measured each rat's value of ST before first administering ISO. And after first, second and third subcutaneous injection for 30 minutes, calculated mv mean value of ΣST as guide line of myocardium injury and performed t test.
The changes of MDA LDH and CK in serum were measured with agent kits.
The changes of MDA, LDH and CK in serum and myocardial tissue homogenate were measured with agent kits.

[3] = tested on: cerebral ischemia-reperfusion injury of mice; test: Memory step-through test after cerebral ischemia-reperfusion injury; assay type: in vivo, NIH mice; conditions: 4.5 mg/kg intragastric once a day for 10 days, n=10
Procedure: After weighed, NIH mice were anaesthetized with Penbotarbital 60 mg/kg, then performed operation. Fixed at supine position, the skin in the middle of the deck was dissected about 7 mm. Separated common carotid artery of two sides of neck, surrounded with the thread of No “0”. Common carotid artery of two sides was chipped with artery clip for 2 minutes to induce cerebral ischemia. In the end of ischemia treatment, artery clip was loosed and blood perfusion was restored, rest for five minutes, repeated twice as that. After blocking blood flow of carotid, sutured incision. Recorded trail bloodletting, bloodletting quantity was no more than 10% of total blood quantity. After operation, […] were administered with proper physiological saline through intraperitoneal injection in order to supple capacity of blood. After pseudo operation group was anaesthetized, carotid of two sides was separated but blood flow was not blocked, without being bloodletting too.
In experiment appearance of body temperature lowering and righting reflex disappearing was as positive guide-line of ischemia, discarding those without typical guide line of ischemia. In the procedure of ischemia or after operation, some of animals would be dead. […] According to the dose of Table 7, animals were administered with medicine by intragastric intubation once a day, and continue administered drug for 10 days. After 10 days, memory test was performed.

[4] = tested on: thymus and spleen of mice; test: Indexes of thymus and spleen of mice injected with cyclophosphamide; assay type: in vivo, NIH mice; conditions: cyclophosphamide 60 mg/kg i.p., drug 10 mg/kg intragastric for 30 days, n=10
Procedure: Chose 90 healthy NIH mice, weighing (18˜22)g, equal amount of male and female. Every mouse was injected with cyclophos phamide (60 mg/kg, intraperitoneally). […] Administered specimen through intragastric intubation in terms of the dose in Table 8. Continuously administered orally specimen for 30 days, all mice fasted on the 30th day, but were supplied with water. On the 31th day, mice of every group were killed. Weighed their body, thymus and spleen, calculated index of thymus and spleen, compared the difference among each group.

[5] = tested on: osteoporosis model of rats induced by Retinoic acid; test: Osteoporosis model of rats induced by Retinoic acid; assay type: in vivo, SD rats; conditions: Retinoic acid 70 mg/kg, specimen orally 30 days (dose not given), right thighbone, n=8
Description: After continuously administering specimen for 30 days, killed rats and took right thighbone of rat.
Took same part tissue of right thighbone, routinely decalcified, enveloped with olefin, and dyed with HE. Observed with ordinary optics microscope, import all imagines into computer with A/D conversion of pickup camera, via dealing with image analysis software obtained index of guide line as follows: relative bone volume, indicating percentage that bone trabecula accounted for medullary cavity, 1.25×10×4 times; average width of bone trabecula, 1.25×10×10 times; amount of cell per area in bone trabecula, gathering same area image (640×480) of bone trabecula with image analysis software, calculating amount of bone cell in corresponding area, 1.25×10×40 times; Average length of bone cell lacuna, 1.25×10×40; Average width of bone cell lacuna, 1.25×10×40. The above five indexes of static state guide-line were all observed for ten eyeshots, calculating their average value.

[6] = tested on: acute renal failure of mice induced by endotoxin; test: Acute renal failure model induced by endotoxin; assay type: in vivo, NIH mice; conditions: drug 10 mg/kg i.p., endotoxin 0.06 g/kg, after five hours, n=10; for GSH-Px: mice kidney homogenate; for BUN / Cr: mice serum
Procedure: After five hours, blood of the mice was collected by removing eyes, assayed Blood Urea Nitrogen (BUN) and Creatinine (Cr) concentration of serum. One kidney of each […] was taken out and made 100 mL/L homogenate, assayed activity of Glutathione Peroxidase (GSH-Px) enzyme.

[7] = tested on: arrhythmia of guinea pigs induced by Ouabain; test: Arrhythmia of guinea pigs induced by Ouabain; assay type: in vivo; conditions: drug 1.5 mg/kg 10 min before Ouabain 3 μg/min, n=8
Procedure: Chose 40 male guinea pigs, weighing (288.8±38.3) g, randomly divided into six groups, anaesthetized with urethane 1.2 g/kg by abdominal injection. Ten minutes after administered drug or 0.5% CMC-Na, the guinea pigs were injected Ouabain into external jugular vein at 3 μg/min speed, recorded ECG respectively, measured the dose at appearance time of VP, VT, VF and CA, and performed t test.

[8] = myocardial tissue homogenate of rats with ISO myocardium injury
[9] = serum of rats with ISO myocardium injury, after 72 hours

| Compound | Activity of CK [2, 8] | Activity of LDH [2, 8] | MDA [2, 8] | Σ ST ([2]; 30 min) | Σ ST ([2]; 24 h) | Σ ST ([2]; 48 h) | Σ ST ([2]; 72 h) | Activity of CK [2, 9] | Activity of LDH [2, 9] | MDA [2, 9] | Latency of dark cabin, Memory [3] | Latency of dark cabin, Study [3] | Number of error [3] | Index of spleen [4] | Index of thymus [4] | Amount of cell per area in bone trabecula [5] | Average width of bone trabecula [5] | Relative bone volume [5] | GSH-Px [6] | BUN [6] | also measured |
| --- | --- | --- | --- | --- | --- | --- | --- | --- | --- | --- | --- | --- | --- | --- | --- | --- | --- | --- | --- | --- | --- |
| C[C@]12CC[C@H](OC(=O)CCCC(=O)O[C@H]3CC[C@@]4(C)C(=CC[C@@H]5[C@@H]4CC[C@]4(C)C(=O)CC[C@@H]54)C3)CC1=CC[C@@H]1[C@@H]2CC[C@]2(C)C(=O)CC[C@@H]12 [Compound E, glutaric acid-(5-androsten-17-one-3β-ol)-diester] | 206.18 ± 43.80 U/L | 160.27 ± 20.36 U/L | 89.62 ± 12.37 nmol/g | 0.53 ± 0.11 mv | 0.50 ± 0.10 mv | 0.57 ± 0.04 mv | 0.51 ± 0.07 mv | 275.44 ± 21.81 U/L | 267.35 ± 38.42 U/L | 25.54 ± 3.80 nmol/mL | 45.8 ± 12.9 s | 24.1 ± 16.0 s | 3.1 ± 2.7 n | 68.20 ± 9.82 mg/10 g body weight | 20.22 ± 2.75 mg/10 g body weight | 19.35 ± 3.13 | 68.66 ± 9.80 μm | 35.87 ± 3.12 % | 32.0 ± 14.4 nU · L^−1 | 315.9 ± 40.8*** 10 mg · L^−1 | Dose of Aconitine required to induce CA [1]: 0.1845 ± 0.0271 mg/kg; Dose of Aconitine required to induce VF [1]: 0.1634 ± 0.0305 mg/kg; Dose of Aconitine required to induce VP [1]: 0.1082 ± 0.0374 mg/kg; Dose of Aconitine required to induce VT [1]: 0.1224 ± 0.0378 mg/kg; Cr [6]: 32.86 ± 8.07*** 10 mg · L^−1 |
| C[C@]12CC[C@H](OC(=O)CCCCC(=O)O[C@H]3CC[C@@]4(C)C(=CC[C@@H]5[C@@H]4CC[C@]4(C)C(=O)CC[C@@H]54)C3)CC1=CC[C@@H]1[C@@H]2CC[C@]2(C)C(=O)CC[C@@H]12 [Compound F, adipic acid-(5-androsten-17-one-3β-ol)-diester] | 221.58 ± 45.58 U/L | 157.39 ± 20.69 U/L | 105.02 ± 10.84 nmol/g | 0.47 ± 0.10 mv | 0.57 ± 0.15 mv | 0.61 ± 0.05 mv | 0.53 ± 0.08 mv | 252.17 ± 18.41 U/L | 250.40 ± 31.30 U/L | 24.16 ± 4.18 nmol/mL | 46.5 ± 13.8 s | 28.7 ± 11.8 s | 2.9 ± 1.1 n | 75.24 ± 15.48 mg/10 g body weight | 16.24 ± 3.31 mg/10 g body weight | 26.31 ± 3.16 | 74.67 ± 3.56 μm | 37.14 ± 3.46 % | 35.2 ± 12.8 nU · L^−1 | 377.1 ± 38.1*** 10 mg · L^−1 | Dose of Oua at appearance of CA [7]: 0.212 ± 0.0406 mg/kg; Dose of Oua at appearance of VF [7]: 0.1762 ± 0.0481 mg/kg; Dose of Oua at appearance of VP [7]: 0.0874 ± 0.0213 mg/kg; Dose of Oua at appearance of VT [7]: 0.1394 ± 0.0354 mg/kg; Cr [6]: 38.31 ± 9.69*** 10 mg · L^−1 |
| glycol-disulphonic acid-(5-androsten-17-one-3β-ol)-diester [Compound G] | 225.60 ± 31.81 U/L | 152.22 ± 25.42 U/L | 99.52 ± 13.15 nmol/g | 0.51 ± 0.13 mv | 0.50 ± 0.14 mv | 0.67 ± 0.19 mv | 0.42 ± 0.07 mv | 248.20 ± 20.50 U/L | 254.75 ± 30.81 U/L | 20.54 ± 2.11 nmol/mL | 47.5 ± 15.7 s | 29.5 ± 17.5 s | 3.4 ± 1.6 n | 80.22 ± 17.33 mg/10 g body weight | 18.39 ± 3.24 mg/10 g body weight | 25.84 ± 3.31 | 69.67 ± 3.15 μm | 34.37 ± 3.27 % | 31.8 ± 12.3 nU · L^−1 | 412.2 ± 40.5*** 10 mg · L^−1 | Dose of Oua at appearance of CA [7]: 0.228 ± 0.0398 mg/kg; Dose of Oua at appearance of VF [7]: 0.1887 ± 0.0378 mg/kg; Dose of Oua at appearance of VP [7]: 0.1109 ± 0.0203 mg/kg; Dose of Oua at appearance of VT [7]: 0.1443 ± 0.0338 mg/kg; Cr [6]: 40.42 ± 10.94*** 10 mg · L^−1 |
